Molecular target: T1, Corticosteroid-binding globulin (Homo sapiens) (UniProt P08185)
T1 sequence (whole entry): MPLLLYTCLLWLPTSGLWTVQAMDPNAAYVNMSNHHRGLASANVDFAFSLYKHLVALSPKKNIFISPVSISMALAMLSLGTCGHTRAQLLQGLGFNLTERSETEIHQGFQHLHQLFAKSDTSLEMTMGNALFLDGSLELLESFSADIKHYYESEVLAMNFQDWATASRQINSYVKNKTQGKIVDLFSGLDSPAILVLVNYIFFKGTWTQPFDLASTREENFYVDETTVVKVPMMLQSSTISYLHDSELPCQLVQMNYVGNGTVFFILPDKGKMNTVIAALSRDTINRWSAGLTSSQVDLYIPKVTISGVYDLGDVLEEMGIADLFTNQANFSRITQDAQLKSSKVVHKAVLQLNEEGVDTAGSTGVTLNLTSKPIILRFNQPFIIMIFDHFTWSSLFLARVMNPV
Experiment: Compound was evaluated for its binding affinity towards the human corticosteroid binding globulin

CC(=O)[C@H]1CC[C@H]2[C@@H]3CCC4=CC(=O)CC[C@]4(C)[C@H]3C(=O)C[C@]12C
Log: -6.78 k

C[C@@H]1C[C@@]2(C)C(=CC1=O)CC[C@H]1[C@@H]3CC[C@](O)(C(=O)CO)[C@@]3(C)C[C@H](O)[C@@]12F
Log: -5.8 k

CC(=O)[C@@]1(O)[C@H](O)C[C@H]2[C@@H]3CCC4=CC(=O)CC[C@]4(C)[C@H]3CC[C@@]21C
Log: -6.25 k

C[C@]12CC[C@H]3[C@@H](CCC4=CC(=O)CC[C@@H]43)[C@@H]1CC[C@@H]2O
Log: -6.14 k

CC(=O)[C@H]1CCC2C3CCC4=CC(=O)CCC4C3CC[C@@]21C (some centres undefined)
Log: -6.82 k

CC(=O)OCC(=O)[C@@]1(O)CCC2C3CCC4=CC(=O)CC[C@]4(C)C3[C@@H](O)C[C@@]21C (some centres undefined)
Log: -7.55 k

C[C@]12C[C@@H](O)[C@H]3[C@@H](CCC4=CC(=O)CC[C@@]43C)[C@@H]1CC[C@@H]2C(=O)CO
Log: -7.2 k

CC(=O)[C@H]1[C@H](C)C[C@H]2[C@@H]3CCC4=CC(=O)CC[C@]4(C)[C@H]3CC[C@@]21C
Log: -7.12 k

C[C@]12C=CC(=O)C=C1CC[C@@H]1[C@@H]2[C@@H](O)C[C@@]2(C)[C@H]1CC[C@]2(O)C(=O)CO
Log: -7.51 k

Source: ChEMBL document CHEMBL1132579, “Self-organizing molecular field analysis: a tool for structure-activity studies” (J Med Chem, 1999)
